Experiment [1] addresses T1, human GFAT-1 (Homo sapiens, UniProt Q06210).
T1 construct: gene GFPT1; full length isoform 2, internal His6-tag inserted between Gly299 and Asp300 (kept), initial Met removed, Sf21 baculovirus (MultiBac), Ni-NTA and SEC; phosphorylated S243 found; dimer in crystal
Briefly: X-ray crystal structure (co-crystallization). Type of experiment: binding.

Experiment [2] deals with T1, human GFAT-1. Briefly: X-ray crystal structure (crystallized with Frc6P). Type of experiment: binding. To be noted: isomerase site; linear Glc6P modelled, Frc6P not excluded at this resolution.
Experiment [3] addresses T1, human GFAT-1. The experiment in a line: X-ray crystal structure (soaking). Format: binding. To be noted: 5 mM soak, 2 h; UDP-GlcNAc site of isomerase domain; inhibition curve in the GDH-coupled assay only in Figure 4g.
For experiment [4], the target named is T1, human GFAT-1. The experiment in a line: GDH-coupled glutaminase (amidohydrolysis) assay, […] nm. Format: biochemical. To be noted: 10 mM L-Gln, 6 mM Frc6P, 1 mM APAD, 1 mM EDTA, 50 mM KCl, 100 mM potassium phosphate pH 7.5, 37 °C; feedback inhibitor bound at isomerase domain (allosteric).

SMILES strings stand for the structures.

T1 sequence (Q06210 2-681 isoform Q06210-2): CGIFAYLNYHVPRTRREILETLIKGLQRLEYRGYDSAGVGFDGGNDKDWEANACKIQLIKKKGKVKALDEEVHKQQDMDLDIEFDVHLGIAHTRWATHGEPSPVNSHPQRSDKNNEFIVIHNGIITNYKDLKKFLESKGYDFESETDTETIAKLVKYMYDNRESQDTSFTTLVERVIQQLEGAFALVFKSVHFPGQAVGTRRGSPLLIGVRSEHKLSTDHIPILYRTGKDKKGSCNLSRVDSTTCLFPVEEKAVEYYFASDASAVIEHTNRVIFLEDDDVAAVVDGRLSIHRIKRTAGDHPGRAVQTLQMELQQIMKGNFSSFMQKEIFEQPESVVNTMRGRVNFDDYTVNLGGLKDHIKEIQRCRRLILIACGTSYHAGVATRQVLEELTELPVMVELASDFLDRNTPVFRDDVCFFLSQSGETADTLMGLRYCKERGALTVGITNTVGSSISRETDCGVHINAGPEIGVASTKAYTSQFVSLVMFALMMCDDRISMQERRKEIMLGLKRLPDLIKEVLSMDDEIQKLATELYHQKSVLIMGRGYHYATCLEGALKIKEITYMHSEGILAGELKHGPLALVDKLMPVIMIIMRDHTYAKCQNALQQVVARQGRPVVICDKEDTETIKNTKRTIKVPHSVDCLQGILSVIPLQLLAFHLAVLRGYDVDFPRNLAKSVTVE

On to `N[C@H]1C(O)O[C@H](COP(=O)(O)O)[C@@H](O)[C@@H]1O` (stereo partly drawn) [D-GlcN6P], for which the “X-ray crystal structure (co-crystallization)” value in experiment [1] (1 mM GlcN6P, with L-Glu, linear sugar in isomerase site) is “The GlcN6P-bound structure formed the same asymmetric dimer as the Glc6P-bound structure”.
For `O=P(O)(O)OC[C@H]1OC(O)[C@H](O)[C@@H](O)[C@@H]1O` (some centres unmarked) [Glc6P], the “X-ray crystal structure (crystallized with Frc6P)” value in experiment [2] was “we decided to model the product Glc6P in our crystal structures”.
As to `N[C@@H](CCC(=O)O)C(=O)O` [L-Glu], the “X-ray crystal structure (co-crystallization)” value in experiment [1] (50 mM L-Glu, glutaminase site of monomer A only) is “The product L-Glu is bound to the glutaminase active site in one monomer (monomer A)”.
With `CC(=O)N[C@H]1[C@@H](OP(=O)(O)OP(=O)(O)OC[C@H]2O[C@@H](n3ccc(=O)[nH]c3=O)[C@H](O)[C@@H]2O)O[C@H](CO)[C@H](O)[C@@H]1O` [UDP-GalNAc], the “X-ray crystal structure (soaking)” value in experiment [3] is on record as “UDP-GalNAc was detected in the UDP-GlcNAc binding site after crystal soaking”.
For `CC(=O)N[C@H]1[C@@H](OP(=O)(O)OP(=O)(O)OC[C@H]2O[C@@H](n3ccc(=O)[nH]c3=O)[C@H](O)[C@@H]2O)O[C@H](CO)[C@@H](O)[C@@H]1O` [UDP-GlcNAc], in experiment [4], the IC50 was 43.3 (−2.3/+2.5) µM.

The values are drawn from paper PMC7000685, “Loss of GFAT-1 feedback regulation activates the hexosamine pathway that modulates protein homeostasis” (Nature Communications, 2020).
